Assays:
[1] = target: T1, CYP121A1 (Mycobacterium tuberculosis, UniProt P9WPP7, S171C); type: binding
T1 construct: gene cyp121

[2] = target: T2, CYP121A1 (Mycobacterium tuberculosis, UniProt P9WPP7, I166A/S171C/I180A); type: binding
T2 construct: gene cyp121

c1c[nH]cn1 [imidazole] was tested, and the “19F-NMR titration (25-200 mM) with stepwise Soret shift” value [1] was “changes in the NMR spectra correlated closely with a stepwise shift in the Soret band of the protein” and the “19F-NMR titration with absorption (Soret) readout” value [2] was “in the I166A_I180A mutant, we observed rapid saturation for both of the NMR and wavelength absorption outputs”.

Reference: PMC8571521, “^19F-NMR reveals substrate specificity of CYP121A1 in Mycobacterium tuberculosis” (The Journal of Biological Chemistry, 2021)
